Where “and” joins values, the source holds several entries; their conditions need not be identical. Equal entries are not always repeated. Entries after “also recorded” stand apart in the source; their conditions may differ. Where two headings read alike, the source gives them in different places. Bounds are passed on as bounds.

For series [1], the target named is T1, SARS-CoV-2 Nsp15 (Severe acute respiratory syndrome coronavirus 2, UniProt P0DTD1).
Series [2] relates to SARS-CoV-2. The series is described as follows: microbe, parasite or virus in culture. The series is classed as cell-based. The conditions noted are these: for Viral titers at a single subtoxic concentration: MOI = 0.1, 24 h postinfection, vs DMSO; for Selectivity index: from CC50 and cellular IC50 in Vero CCL-81 cells.
The target in series [3] is T1, SARS-CoV-2 Nsp15. The series is described as follows: FRET assay with nonionic detergent (colloidal aggregate test). It is filed as biochemical. The conditions noted are these: 0.01% Triton-X or CHAPS.
Series [4] deals with MERS Nsp15 (Middle East respiratory syndrome-related coronavirus, UniProt K9N7C7). It is filed as biochemical.
Sequence of MERS Nsp15 (K9N7C7 6433-6775 limits assumed): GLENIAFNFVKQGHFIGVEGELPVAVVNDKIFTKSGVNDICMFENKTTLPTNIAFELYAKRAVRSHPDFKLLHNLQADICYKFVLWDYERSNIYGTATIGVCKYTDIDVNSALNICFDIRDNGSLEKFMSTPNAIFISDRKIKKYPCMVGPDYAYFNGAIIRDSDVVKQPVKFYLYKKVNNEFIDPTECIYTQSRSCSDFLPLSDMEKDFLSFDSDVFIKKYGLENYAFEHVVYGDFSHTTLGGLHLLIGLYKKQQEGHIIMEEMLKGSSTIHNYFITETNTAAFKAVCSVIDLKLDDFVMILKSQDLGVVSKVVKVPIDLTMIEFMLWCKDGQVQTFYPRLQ
Series [5] deals with T1, SARS-CoV-2 Nsp15. Kind of series: Reversibility: reaction progress after dilution of preincubated enzyme-inhibitor complex. The series is classed as biochemical. As to conditions: 60 min preincubation, 1:50 dilution.
Series [6] can be described thus: Cell cytotoxicity assay (CellTiter-Glo). As to conditions: African green monkey, CC50, 24 h.
Series [7] has as its target T1, SARS-CoV-2 Nsp15. The series is described as follows: Nsp15 native RNA cleavage assay (denaturing PAGE, SYBR Gold). It is filed as biochemical.
Series [8] has as its target T1, SARS-CoV-2 Nsp15. The series is described as follows: biochemical. The series is classed as biochemical.
Series [9] concerns the target T1, SARS-CoV-2 Nsp15. The series is described as follows: Nsp15 FRET-based activity assay. The series is classed as biochemical. The conditions noted are these: for Nsp15 inhibition with 5′FAM and 5′Cy5 substrates and quenching: compounds at 25 μM and 50 μM.
Series [10] is described as follows: in vitro. As to conditions: African green monkey.
For series [11], the target named is T1, SARS-CoV-2 Nsp15. The series is described as follows: Effect of DTT on compound inhibition of Nsp15. It is filed as biochemical. As to conditions: 10 mM vs 1 mM DTT.
Series [12] deals with T1, SARS-CoV-2 Nsp15. Kind of series: MALDI-TOF mass spectrometry of Nsp15 preincubated with compound. As to conditions: preincubation with fivefold molar excess of compound.
The target in series [13] is SARS-CoV-1 Nsp15 (Severe acute respiratory syndrome coronavirus, UniProt P0C6X7). It is filed as biochemical.
Series [14] deals with Calu-3 cells. Details: method as in PMID 33886614. As to conditions: cited from earlier work.
Where [15] appears, read: 31-nt single rU RNA, 1 h at 37 °C.
[16] abbreviates: RNA substrate titration 0 to 10 µM.
The mark [17] stands for this setting: extra sum-of-squares F test, highest inhibitor dose.
Where [18] appears, read: IC50, Nsp15 activity, FRET assay, Nsp15 1 ng/μl, ~12 min at 37 °C.
[19] abbreviates: Severe acute respiratory syndrome coronavirus 2, 24 h, read-out: IC50, viral inhibition, Vero CCL-81 cells, MOI = 0.1, 24 h infection.
Where [20] appears, read: read-out: IC50, viral inhibition, Vero CCL-81 cells, MOI = 0.1, 24 h infection.

As for 5′-FAM-CAACUAAACGAAC-BHQ1-3′ [RNA2], the Vmax in series [1] was roughly 0.3 µM/min. Moreover, the Km in series [1] (read-out: Km of substrate) is roughly 3000 nM.
In the case of `CC(=O)Nc1ccc(NS(=O)(=O)c2ccc3c(c2)C(=O)c2ccccc2C3=O)cc1` [CID5220994], the “Viral titers at a single subtoxic concentration” value (“Viral titers” for short) in series [2] (Vero CCL-81 cells) is listed as “not statistically different from the control”. For the same compound, in [3], the “Change of Nsp15 activity with inhibitor when detergent is present” value (shortened to “Change of Nsp15 activity with inhibitor”) is “higher increase in activity”. Moreover, the “Inhibition of MERS Nsp15” value in series [4] is given as “only modest effects”. Further, in [5], the Reversibility of inhibition entry was “Nsp15 activity was restored”. Moreover, the CC50 at 24 h in [6] (Fig. S15) was in the range of 15 to 42 µM. Also, the “Inhibition of native RNA substrate cleavage” value in series [7] (setting [15]) is reported as “dose-dependent effects”. In [8], this compound yielded a Ki of 72.9 ± 11.6 µM. Moreover, the “Kinetic mechanism / predicted type of inhibition” value in series [8] (setting [16]) is “competitive with substrate”. Further, in [8] (setting [17]), the “Km diff. vs DMSO” value is “Yes” and the “Vmax diff. vs DMSO” value was “No”. For the same compound, the “Vmax (best-fit)” value in series [8] (inhibitor 50µM) was 0.31 µM/min. Besides, the “Vmax (best-fit)” value in series [8] (inhibitor 100µM) was 0.28 µM/min. Besides, the IC50 in [9] (setting [18]) is ~50 µM and 50.9 µM. Further, in [9], the “Nsp15 inhibition with 5′FAM and 5′Cy5 substrates and quenching” value (shortened to “Nsp15 inhibition”) was “inhibited Nsp15 using either substrate, without appreciable quenching”.
Turning to `O=C(N/N=C/c1ccccc1O)c1ccc(O)c(O)c1` [CID5266986], the “Viral titers” value in series [2] (Vero CCL-81 cells) is “not statistically different from the control”. Also, the “Change of Nsp15 activity with inhibitor” value in series [3] is “increase in Nsp15 activity”. For the same compound, the “Inhibition of MERS Nsp15” value in [4] is listed as “only modest effects”. Further, in series [5], the Reversibility of inhibition entry is “Nsp15 activity was restored”. Further, the CC50 at 24 h in series [6] (Fig. S15) was 15 to 42 µM. The “Inhibition of native RNA substrate cleavage” value in series [7] (setting [15]) is “dose-dependent effects”. In addition, the Ki in [8] was determined as 64.9 ± 16.9 µM. For the same compound, the “Kinetic mechanism / predicted type of inhibition” value in series [8] (setting [16]) was “mixed mechanisms of inhibition”. Also, in series [8] (setting [17]), the “Km diff. vs DMSO” value is given as “Yes” and the “Vmax diff. vs DMSO” value was “Yes”. In series [8] (inhibitor 125µM), the “Vmax (best-fit)” value worked out at 0.22 µM/min. For the same compound, in [8] (inhibitor 175µM), the “Vmax (best-fit)” value is reported as 0.21 µM/min. Moreover, the IC50 in [9] (setting [18]) was ~78 µM and 78 µM. Also, the “Nsp15 inhibition” value in [9] is on record as “inhibited Nsp15 using either substrate, without appreciable quenching”.
In the case of `O=C1/C(=C/c2cc([N+](=O)[O-])cc(Br)c2O)SC(=S)N1Cc1ccccc1` [CID5675221], the IC50 in [2] (setting [19]) is 19 ± 3.9 µM; in series [2] (setting [20]), ~20 µM and < 20 µM; in [9] (setting [18]), ~20 µM and 20.7 µM. Also, the “Viral titers” value in series [2] (Vero CCL-81 cells) is recorded as “significantly reduced viral titers”. In series [2], this compound returned a Selectivity index of roughly 15. Moreover, the “Change of Nsp15 activity with inhibitor” value in series [3] is recorded as “increase in Nsp15 activity”. The Reversibility of inhibition result in series [5] is “Nsp15 activity was restored”. Further, the CC50 at 24 h in series [6] (Fig. S15) is greater than 240 µM; in series [6] (measured in parallel with viral inhibition, Fig. 6), 290 ± 28 µM. Moreover, the “Inhibition of native RNA substrate cleavage” value in series [7] (setting [15]) is given as “dose-dependent effects”. Moreover, the Ki in [8] was determined as 6.71 ± 2.31 µM. In addition, the “Kinetic mechanism / predicted type of inhibition” value in [8] (setting [16]) was “mixed mechanisms of inhibition”. Further, in series [8] (setting [17]), the “Km diff. vs DMSO” value is listed as “Yes”. In series [8] (setting [17]), the “Vmax diff. vs DMSO” value was “Yes”. The “Vmax (best-fit)” value was found to be 0.21 µM/min in series [8] (inhibitor 15µM) and 0.17 µM/min in series [8] (inhibitor 30µM). In addition, the “Nsp15 inhibition” value in series [9] was “inhibited Nsp15 using either substrate, without appreciable quenching”.
Regarding `Oc1ccc2ccccc2c1SSc1c(O)ccc2ccccc12` [IPA-3, reference compound], the half-maximal inhibitory concentration (IC50) in series [2] (Severe acute respiratory syndrome coronavirus 2, 24 h, Vero CCL-81 cells, MOI = 0.1, 24 h infection, read-out: IC50, viral inhibition) was 8.5 ± 1.1 µM; in [2] (Vero CCL-81 cells, MOI = 0.1, 24 h infection, read-out: IC50, viral inhibition), 10 µM; in series [9] (FRET assay, Nsp15 1 ng/μl, ~12 min at 37 °C, read-out: IC50, Nsp15 activity), ~7 µM and 6.8 µM. Besides, the “Viral titers” value in series [2] (Vero CCL-81 cells) is recorded as “significantly reduced viral titers”. For the same compound, the Selectivity index in series [2] is on record as roughly 5. The “Change of Nsp15 activity with inhibitor” value in series [3] is reported as “increase in Nsp15 activity”. In [10], the CC50 at 24 h is 43 ± 4.8 µM. In addition, the “Inhibition of MERS Nsp15” value in series [4] is on record as “only modest effects; also recorded: reduced effect”. Also, the Reversibility of inhibition entry in series [5] is “irreversible”. Moreover, in [11], the “Effect of excess DTT on inhibition” value was “excess DTT nearly completely reversed inhibition”. For the same compound, the “Inhibition of native RNA substrate cleavage” value in [7] (setting [15]) is given as “dose-dependent effects”. Moreover, the “Peak shift of Nsp15 versus apoprotein” value in series [12] is given as roughly 333 Da. Further, the “Kinetic mechanism / predicted type of inhibition” value in series [8] (setting [16]) is on record as “noncompetitive”. In addition, the “Km diff. vs DMSO” value in [8] (setting [17]) is “No”. In [8] (setting [17]), the “Vmax diff. vs DMSO” value is reported as “Yes”. In addition, the inhibition constant (Ki) in series [8] (fit to Michaelis-Menten inhibition models, read-out: Computed Ki ± SE) was 10.8 ± 0.87 µM. Besides, the results for the “Vmax (best-fit)” value in [8] (inhibitor 5µM) and in series [8] (inhibitor 20µM) were 0.23 µM/min and 0.11 µM/min, respectively. Moreover, the “Nsp15 inhibition” value in series [9] is “inhibited Nsp15 using either substrate, without appreciable quenching”. Besides, the “Inhibition of SARS-CoV-1 Nsp15” value in [13] is recorded as “equal potency”.
In the case of `Nc1c(S(=O)(=O)O)cc(Nc2ccc(Nc3nc(Cl)nc(Nc4cccc(S(=O)(=O)O)c4)n3)c(S(=O)(=O)O)c2)c2c1C(=O)c1ccccc1C2=O` [Reactive Blue 2, reference compound], the “Inhibition of native RNA substrate cleavage” value in series [7] (setting [15]) is on record as “produced a fluorescent artifact”. The “Nsp15 inhibition” value in series [9] is given as “inhibited Nsp15 using either substrate, without appreciable quenching”.
Regarding `Oc1c(Cl)cc(Cl)c(Cl)c1Cc1c(O)c(Cl)cc(Cl)c1Cl` [hexachlorophene, reference compound], the IC50 in series [2] (setting [19]) was 0.91 ± 0.044 µM; in [2] (setting [20]), roughly 1 µM; in [9] (IC50, Nsp15 activity), ~1 µM and 1.6 µM and 1 to 2 µM. In series [2] (Vero CCL-81 cells), the “Viral titers” value is “significantly reduced viral titers”. Besides, the “Change of Nsp15 activity with inhibitor” value in series [3] is reported as “increase in Nsp15 activity”. Further, in [5], the Reversibility of inhibition entry is “Nsp15 activity was restored”. In addition, the “Inhibition of native RNA substrate cleavage” value in series [7] is “dose-dependent effects”. The affinity in [8], expressed as Ki, was 1.23 ± 0.3 µM. The entries for the “Kinetic mechanism / predicted type of inhibition” value in series [8] and in [8] (listed as Hexachlorophene) were “mixed mechanisms of inhibition” and “Mixed”, respectively. For the same compound, in series [8], the “Km diff. vs DMSO” value is given as “Yes”. For the same compound, in series [8] (setting [17]), the “Vmax diff. vs DMSO” value is reported as “Yes”. In addition, the “Vmax (best-fit)” value in [8] (inhibitor 3µM) is 0.24 µM/min; in [8] (inhibitor 6µM), 0.19 µM/min. Moreover, in [9], the “Nsp15 inhibition” value is recorded as “inhibited Nsp15 using either substrate, without appreciable quenching”. The “Inhibition of SARS-CoV-1 Nsp15” value in series [13] was “less potent”.
Turning to `CCC(CC)COC(=O)[C@H](C)N[P@](=O)(OC[C@H]1O[C@@](C#N)(c2ccc3c(N)ncnn23)[C@H](O)[C@@H]1O)Oc1ccccc1` [remdesivir], the “Viral titers” value in series [2] (Vero CCL-81 cells) is recorded as “significantly reduced viral titers”.
Consider `CC1(C)CCC2=C(O1)c1ccccc1C(=O)C2=O` [β-lapachone, reference compound], for which the “Nsp15 inhibition” value in series [9] is given as “inhibited Nsp15 using either substrate, without appreciable quenching”.
On to Exebryl-1, for which the EC50 in series [14] was roughly 65 µM.

As usually defined, the Vmax is the top rate of the reaction or transport when substrate is in excess. As usually defined, the Km is the substrate concentration at which the rate is half of its maximum. For orientation: Ki means the equilibrium dissociation constant of an inhibitor or competing ligand from its target. The IC50 is the concentration that inhibits the measured activity by half. The EC50 is the concentration giving half of the maximal effect.

(Values after paper PMC10656235, “Reversible and irreversible inhibitors of coronavirus Nsp15 endoribonuclease” (The Journal of Biological Chemistry, 2023).)
